Data: US9278982B2, “Targeting human thymidylate kinase induces DNA repair toxicity in malignant tumor cells” (NATIONAL YANG-MING UNIVERSITY, priority 2010, dated 2016)

Key:
dUTPase = target: T1, dUTPase (Homo sapiens, UniProt P33316); experiment: dUTPase activity assay; format: biochemical; details: 0.1 μg purified GST-dUTPase, 10 min incubation with YMU1
T1 construct: made in house; host or cells: E. coli JM109 (pGEX-2T-dUTPase (WT))
Description: FIG. 19. No effect of YMU1 on dUTPase activity. 0.1 μg of purified GST-dUTPase protein was incubated with the indicated concentration of YMU1 for 10 min prior to action using dUTPase activity analysis.
For detecting dUTPase activity, the EnzChek Pyrophosphate Assay kit (Invitrogen) was used for measuring the dUTPase activity following the manufacturer's instruction. […] Reaction mixtures were incubated at 37° C. for 3 minutes. Samples (15 μl each) were added to the reaction mixtures [715 μl dH2O, 50 μl 20× reaction buffer, 200 μl MESG substrate, 1 U purine nucleoside phosphorylase, 0.03 U inorganic pyrophosphatase] and incubated at 22° C. for 45 minutes. The absorbance at 360 nm was measured using an ELISA plate reader.

HCT-116 p53−/− cells = experiment: Whole-cell dTTP extraction and quantification; format: cell-based, human
Description: FIG. 13. Effect of YMU1 on cellular dTTP level. HCT-116 p53−/− cells were transfected with or without TMPK siRNA for 2 days and treated with vehicle or YMU1. After 72 h, cells were harvested for Western blot analysis and dNTP level determination (mean±s.d., n=3; **, P<0.01 based on a two-tailed Student's t-test).
The investigators performed additional experiments to determine the effect of YMU1 treatment on cellular dTTP levels. YMU1 treatment in cells reduced dTTP pool about 30-40% after treatment with YMU1 for 3 days (FIG. 13). Transfection of these cells with siRNA to knock-down TMPK expression reduced the dTTP pool size in a similar magnitude.
10^6 cells were extracted with 1 ml of ice-cold 60% methanol at −20° C. overnight, followed by centrifugation for 30 min at 16,000×g. The supernatant was immersed at 100° C. in dry bath for 3 min and dried under vacuum. The dry residue was dissolved in 80 μl of nuclease free water and used for cellular dNTP measurement according to the method described by Ferraro et al. (Ferraro et al., 2010).

MDA-MB231 cells = experiment: Repair of doxorubicin-induced DNA lesions (γH2AX, Rad51, XRCC1 foci staining); format: cell-based, human
Description: FIG. 14. Effect of YMU1 on genomic toxicity and DNA repair. […] After overnight, cells were exposed to doxorubicin and recovered. […]
For γH2AX, Rad51 and XRCC1 staining, cells were fixed with 4% paraformaldehyde for 30 min at room temperature and were incubated with TBS (50 mM Tris-HCl, pH 7.4, 150 mM NaCl) plus 0.3% Triton X-100 for 5 min. The coverslips were blocked with MAXblock™ (Active Motif) for 1 h at 37° C., followed by staining with primary antibodies: anti-γH2AX monoclonal antibody (1:1000), anti-Rad51 polyclonal antibody (1:500) or anti-XRCC1 monoclonal antibody (1:500) overnight at 4° C. After extensive washing, cells were stained with secondary antibodies and Hoechst 33342 for 1 h at room temperature. After mounting, cells were analyzed and photographed with a Carl Zeiss fluorescence microscope equipped with AxioCam digital camera and Axio Vision Rel. 4.8 imaging software.

[1] = system: various cancer cell lines; experiment: Colony formation assay after YMU1 and doxorubicin; format: cell-based, human; details: YMU1 72 h, doxorubicin 0.1 μM 4 h, 14 days of culture
Description: FIG. 16. In vitro and in vivo effect of YMU1 on doxorubicin sensitization. (A) A panel of cell lines were pre-treated with vehicle, YMU1 (compound 21), D6 (ethyl 4-(2-chloroacetyl)piperazine-1-carboxylate) or D7 (compound 28) for 3 days and were exposed to different concentration of doxorubicin for 4 h. […] The enhancement (fold) of doxorubicin sensitivity in each cell line was calculated. Data represent mean±s.d., n=3; each experiment was quadruplex. Inset indicates the IC50 value of doxorubicin in various cell lines. […] Following overnight culture, cells were refreshed with growth medium. After 14 days of culture, colonies were fixed, stained by crystal violet and counted. (C) HCT-116 p53^−/− cells were subcutaneously implanted in the right flank of Balb/c nude mice (each experimental group n=8). Arrow indicated the time of stopping drug treatment. The tumor volume was estimated as described in Methods of the Invention section. (D) After 2 weeks recovered from treatment, mice were sacrificed for tumor weight measurement. Data represent mean±s.e.m; **, P<0.01 by a two-tailed Student's t-test. (E) Ki 67 proliferation marker staining of tumor shown in left panel. Scale bar, 50 μm. (F) Model of doxorubicin sensitization by YMU1 in malignant cancer cells. […]

TMPK = target: T2, TMPK (Homo sapiens, UniProt P23919); experiment: In vitro TMPK inhibitory activity of TMPK inhibitor derivatives (inhibition yield); format: biochemical; parameters: GST (N, cleaved yes); made in house; host or cells: E. coli JM109 (pGEX-2T-hTMPK), inferred; details: 2 μM; n=3 or 6; read-out: inhibition yield, normalized to compound 21 (YMU1) = 100%
T2 sequence (P23919 1-212): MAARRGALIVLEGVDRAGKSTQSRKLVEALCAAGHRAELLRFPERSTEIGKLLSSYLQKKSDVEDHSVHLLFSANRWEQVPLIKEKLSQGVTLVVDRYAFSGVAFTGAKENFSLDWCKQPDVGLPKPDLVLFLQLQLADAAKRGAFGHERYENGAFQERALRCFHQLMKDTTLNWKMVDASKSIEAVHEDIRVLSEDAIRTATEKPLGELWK
Excerpt: Chemical structures of the different TMPK inhibitor derivatives tested for in vitro TMPK inhibitory activity and in vivo doxorubicin sensitization activity (in MDA-MB231 cells) are depicted below.

[2] = YMU1 2 μM 72 h, doxorubicin exposure and recovery

T1 sequence (P33316 1-164 isoform P33316-2): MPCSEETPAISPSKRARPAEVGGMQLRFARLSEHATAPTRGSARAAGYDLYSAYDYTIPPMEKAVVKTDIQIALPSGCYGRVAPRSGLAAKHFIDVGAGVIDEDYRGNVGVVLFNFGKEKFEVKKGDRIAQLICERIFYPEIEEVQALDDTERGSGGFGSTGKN

CCOC(=O)N1CCN(C(=O)Cn2sc3nc(C)cc(C)c3c2=O)CC1 [compound 21, Ethyl 4-(2-(4,6-dimethyl-3-oxoisothiazolo[5,4-b]pyridin-2(3H)-yl)acetyl) piperazine-1-carboxylate]
inhibition of dUTPase (dUTPase): unable to inhibit dUTPase
further reduction of dTTP pool in TMPK knockdown cells (HCT-116 p53−/− cells; cells transfected with TMPK siRNA, then YMU1): did not cause a further reduction
reduction of dTTP pool (HCT-116 p53−/− cells; treatment with YMU1 for 3 days): 30-40%
Rad51 foci (MDA-MB231 cells; [2]): persistent Rad51 foci
XRCC1 foci formation (MDA-MB231 cells; [2]): increase in XRCC1 foci formation
numbers of DNA lesions formation (γH2AX focus staining) (MDA-MB231 cells; YMU1 2 μM 72 h pre-treatment, doxorubicin 0.1 μM): did not affect numbers of DNA lesions formation
cells still γH2AX-positive (MDA-MB231 cells; YMU1 2 μM 72 h pretreatment, recovery 48 h post-doxorubicin (0.1 μM) exposure): over 70%
lethal effects of doxorubicin (colony assay) [1]: markedly enhanced the lethal effects of doxorubicin
inhibition at 2 µM (TMPK): 100%
